Laboratory results reported in patent US6737383B1, “Herbicidal oxadiazolidines” (priority 1999, dated 2004).

Tests used:
sugar beet = test: Test B pre/postemergence sugar beet; type: in vivo, Beta vulgaris
In short: (§1)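 Response is a visual 0-to-10 score relative to untreated plants, where 0 means no effect and 10 means complete control, taken twelve to sixteen days after application. Treatments went onto soil at planting and onto foliage of 1- to 4-leaf plants, using a surfactant-containing non-phytotoxic solvent.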

purple nutsedge = test: Test B pre/postemergence purple nutsedge; type: in vivo, Cyperus rotundus
In short: as §1

rice = test: Test B flood test rice; type: in vivo, Oryza sativa
In short: (§2)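 Each value is a visual injury score relative to controls, with 10 meaning complete control and 0 no effect. Evaluation took place twelve to sixteen days after the 2-leaf-stage plants were treated and kept in the greenhouse.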

cocklebur = test: Test B pre/postemergence cocklebur; type: in vivo, Xanthium strumarium
In short: as §1

crabgrass = test: Test B pre/postemergence crabgrass; type: in vivo, Digitaria sanguinalis
In short: as §1

velvetleaf = test: Test B pre/postemergence velvetleaf; type: in vivo, Abutilon theophrasti
In short: as §1

rape = test: Test B pre/postemergence rape; type: in vivo, Brassica napus
In short: as §1

blackgrass = test: Test B pre/postemergence blackgrass; type: in vivo, Alopecurus myosuroides
In short: as §1

bedstraw = test: Test B pre/postemergence bedstraw; type: in vivo, Galium aparine
In short: as §1

corn = test: Test B pre/postemergence corn; type: in vivo, Zea mays
In short: as §1

wheat = test: Test B pre/postemergence wheat; type: in vivo, Triticum aestivum
In short: as §1

soybean = test: Test B pre/postemergence soybean; type: in vivo, Glycine max
In short: as §1

surinam grass = test: Test B pre/postemergence surinam grass; type: in vivo, Brachiaria decumbens
In short: as §1

smallflower flatsedge = test: Test B flood test smallflower flatsedge; type: in vivo, Cyperus difformis
In short: as §2

wild oat = test: Test B pre/postemergence wild oat; type: in vivo, Avena fatua
In short: as §1

bamyardgrass = test: Test B flood test barnyardgrass; type: in vivo, Echinochloa crus-galli
In short: as §2

duck salad = test: Test B flood test duck salad; type: in vivo, Heteranthera limosa
In short: as §2

[1] = Preemergence, Rate 31 g/ha, visual rating, scale 0 to 10 (0 no effect, 10 complete control)
[2] = Preemergence, Rate 62 g/ha, scale of 0 to 10 where 0 is no effect and 10 is complete control
[3] = Preemergence, Rate 250 g/ha, scale of 0 to 10 where 0 is no effect and 10 is complete control
[4] = Rate 62 g/ha, Postemergence, scale of 0 to 10 where 0 is no effect and 10 is complete control
[5] = Rate 125 g/ha, Postemergence, scale 0 to 10
[6] = Rate 125 g/ha, Preemergence, scale of 0 to 10 where 0 is no effect and 10 is complete control
[7] = Rate 31 g/ha, Postemergence, scale 0 to 10
[8] = Rate 31 g/ha, Pre-emergence section (flood test species), scale 0 to 10
[9] = Rate 62 g/ha, headed Pre-emergence (flood test species), scale 0 to 10 (0 no effect, 10 complete control)
[10] = Rate 125 g/ha, Pre-emergence, flood test species, scale 0 to 10 where 0 is no effect and 10 is complete control
[11] = Rate 250 g/ha, Pre-emergence, flood-test species, scale 0 to 10, 0 is no effect, 10 is complete control

`CCCCn1c(=O)on(C(=O)N(c2ccc(F)cc2)C(C)C)c1=O` [Compound 221] was tested, and the “Sugarbeets plant response rating” value (sugar beet; [1]) was 0, the “Sugarbeets plant response rating” value (sugar beet; [2]) was 0 and the “Sugarbeets plant response rating” value (sugar beet; [3]) was 10. The “Sugarbeets plant response rating” value (sugar beet; [4]) was 0, the “Sugarbeets plant response rating” value (sugar beet; [5]) was 4 and the “Sugarbeets plant response rating” value (sugar beet; [6]) was 4. For the same compound, the “Plant response rating (0 to 10; 0 is no effect, 10 is complete control), Sugarbeets” value (sugar beet; Rate 250 g/ha, Postemergence) was 4, the “Nutsedge plant response rating” value (purple nutsedge; [1]) was 0 and the “Nutsedge plant response rating” value (purple nutsedge; [2]) was 0. For the same compound, the “Nutsedge plant response rating” value (purple nutsedge; [3]) was 0, the “Nutsedge plant response rating” value (purple nutsedge; [7]) was 0 and the “Nutsedge plant response rating” value (purple nutsedge; [4]) was 0. The “Nutsedge plant response rating” value (purple nutsedge; [5]) was 0, the “Nutsedge plant response rating” value (purple nutsedge; [6]) was 0 and the “Plant response rating (0 to 10; 0 is no effect, 10 is complete control), Nutsedge” value (purple nutsedge; Rate 250 g/ha, Postemergence) was 0. For the same compound, the “Rice plant response rating” value (rice; [8]) was 0, the “Rice plant response rating” value (rice; [9]) was 0 and the “Rice plant response rating” value (rice; [10]) was 0. The “Rice plant response rating” value (rice; [11]) was 0, the “Cocklebur plant response rating” value (cocklebur; [2]) was 0 and the “Cocklebur plant response rating” value (cocklebur; [3]) was 0. The “Cocklebur plant response rating” value (cocklebur; [7]) was 0, the “Cocklebur plant response rating” value (cocklebur; [4]) was 0 and the “Cocklebur plant response rating” value (cocklebur; [5]) was 0. The “Cocklebur plant response rating” value (cocklebur; [6]) was 0, the “Plant response rating (0 to 10; 0 is no effect, 10 is complete control), Cocklebur” value (cocklebur; Rate 250 g/ha, Postemergence) was 0 and the “Crabgrass plant response rating” value (crabgrass; [1]) was 2. For the same compound, the “Crabgrass plant response rating” value (crabgrass; [2]) was 6, the “Crabgrass plant response rating” value (crabgrass; [3]) was 8 and the “Crabgrass plant response rating” value (crabgrass; [7]) was 0. The “Crabgrass plant response rating” value (crabgrass; [4]) was 2, the “Crabgrass plant response rating” value (crabgrass; [5]) was 6 and the “Crabgrass plant response rating” value (crabgrass; [6]) was 8. For the same compound, the “Plant response rating (0 to 10; 0 is no effect, 10 is complete control), Crabgrass” value (crabgrass; Rate 250 g/ha, Postemergence) was 8, the “Velvetleaf plant response rating” value (velvetleaf; [1]) was 0 and the “Velvetleaf plant response rating” value (velvetleaf; [2]) was 0. For the same compound, the “Velvetleaf plant response rating” value (velvetleaf; [3]) was 0, the “Velvetleaf plant response rating” value (velvetleaf; [4]) was 0 and the “Velvetleaf plant response rating” value (velvetleaf; [5]) was 0. For the same compound, the “Velvetleaf plant response rating” value (velvetleaf; [6]) was 0, the “Plant response rating (0 to 10; 0 is no effect, 10 is complete control), Velvetleaf” value (velvetleaf; Rate 250 g/ha, Postemergence) was 0 and the “Rape plant response rating” value (rape; [1]) was 0. The “Rape plant response rating” value (rape; [2]) was 0, the “Rape plant response rating” value (rape; [3]) was 8 and the “Rape plant response rating” value (rape; [7]) was 0. For the same compound, the “Rape plant response rating” value (rape; [4]) was 0, the “Rape plant response rating” value (rape; [5]) was 4 and the “Rape plant response rating” value (rape; [6]) was 6. The “Plant response rating (0 to 10; 0 is no effect, 10 is complete control), Rape” value (rape; Rate 250 g/ha, Postemergence) was 4, the “Blackgrass plant response rating” value (blackgrass; [1]) was 5 and the “Blackgrass plant response rating” value (blackgrass; [2]) was 5. The “Blackgrass plant response rating” value (blackgrass; [3]) was 7, the “Blackgrass plant response rating” value (blackgrass; [7]) was 2 and the “Blackgrass plant response rating” value (blackgrass; [4]) was 2. For the same compound, the “Blackgrass plant response rating” value (blackgrass; [5]) was 9, the “Blackgrass plant response rating” value (blackgrass; [6]) was 7 and the “Plant response rating (0 to 10; 0 is no effect, 10 is complete control), Blackgrass” value (blackgrass; Rate 250 g/ha, Postemergence) was 9. The “Bedstraw plant response rating” value (bedstraw; [1]) was 0, the “Bedstraw plant response rating” value (bedstraw; [2]) was 0 and the “Bedstraw plant response rating” value (bedstraw; [3]) was 4. The “Bedstraw plant response rating” value (bedstraw; [7]) was 2, the “Bedstraw plant response rating” value (bedstraw; [4]) was 2 and the “Bedstraw plant response rating” value (bedstraw; [5]) was 7. For the same compound, the “Bedstraw plant response rating” value (bedstraw; [6]) was 4, the “Plant response rating (0 to 10; 0 is no effect, 10 is complete control), Bedstraw” value (bedstraw; Rate 250 g/ha, Postemergence) was 9 and the “Corn plant response rating” value (corn; [1]) was 0. The “Corn plant response rating” value (corn; [2]) was 0, the “Corn plant response rating” value (corn; [3]) was 0 and the “Corn plant response rating” value (corn; [7]) was 0. The “Corn plant response rating” value (corn; [4]) was 0, the “Corn plant response rating” value (corn; [5]) was 0 and the “Corn plant response rating” value (corn; [6]) was 0. For the same compound, the “Plant response rating (0 to 10; 0 is no effect, 10 is complete control), Corn” value (corn; Rate 250 g/ha, Postemergence) was 0, the “Wheat plant response rating” value (wheat; [1]) was 0 and the “Wheat plant response rating” value (wheat; [2]) was 0. The “Wheat plant response rating” value (wheat; [3]) was 2, the “Wheat plant response rating” value (wheat; [4]) was 0 and the “Wheat plant response rating” value (wheat; [5]) was 2. For the same compound, the “Wheat plant response rating” value (wheat; [6]) was 2, the “Plant response rating (0 to 10; 0 is no effect, 10 is complete control), Wheat” value (wheat; Rate 250 g/ha, Postemergence) was 4 and the “Soybean plant response rating” value (soybean; [1]) was 0. The “Soybean plant response rating” value (soybean; [2]) was 0, the “Soybean plant response rating” value (soybean; [3]) was 0 and the “Soybean plant response rating” value (soybean; [4]) was 2. For the same compound, the “Soybean plant response rating” value (soybean; [5]) was 2, the “Soybean plant response rating” value (soybean; [6]) was 0 and the “Plant response rating (0 to 10; 0 is no effect, 10 is complete control), Soybean” value (soybean; Rate 250 g/ha, Postemergence) was 3. For the same compound, the “B. signalgrass plant response rating” value (surinam grass; [1]) was 2, the “B. signalgrass plant response rating” value (surinam grass; [2]) was 5 and the “B. signalgrass plant response rating” value (surinam grass; Preemergence, Rate 250 g/ha, scale 0 to 10, 0 is no effect, 10 is complete control) was 6. For the same compound, the “B. signalgrass plant response rating” value (surinam grass; [7]) was 0, the “B. signalgrass plant response rating” value (surinam grass; [4]) was 0 and the “B. signalgrass plant response rating” value (surinam grass; Rate 125 g/ha, Postemergence, scale 0 (no effect) to 10 (complete control)) was 3. The “B. signalgrass plant response rating” value (surinam grass; [6]) was 5, the “Plant response rating (0 to 10; 0 is no effect, 10 is complete control), B. signalgrass” value (surinam grass; Rate 250 g/ha, Postemergence) was 8 and the “S. Flatsedge plant response rating” value (smallflower flatsedge; [8]) was 0. For the same compound, the “S. Flatsedge plant response rating” value (smallflower flatsedge; [9]) was 0, the “S. Flatsedge plant response rating” value (smallflower flatsedge; [10]) was 0 and the “S. Flatsedge plant response rating” value (smallflower flatsedge; [11]) was 0. For the same compound, the “Wild oats plant response rating” value (wild oat; [1]) was 2, the “Wild oats plant response rating” value (wild oat; [2]) was 2 and the “Wild oats plant response rating” value (wild oat; [3]) was 4. For the same compound, the “Wild oats plant response rating” value (wild oat; [4]) was 0, the “Wild oats plant response rating” value (wild oat; [5]) was 0 and the “Wild oats plant response rating” value (wild oat; [6]) was 2. The “Plant response rating (0 to 10; 0 is no effect, 10 is complete control), Wild oats” value (wild oat; Rate 250 g/ha, Postemergence) was 2, the “Barnyardgrass plant response rating” value (bamyardgrass; [8]) was 0 and the “Barnyardgrass plant response rating” value (bamyardgrass; [9]) was 0. The “Barnyardgrass plant response rating” value (bamyardgrass; [10]) was 0, the “Barnyardgrass plant response rating” value (bamyardgrass; [11]) was 0 and the “Ducksalad plant response rating” value (duck salad; [8]) was 0. The “Ducksalad plant response rating” value (duck salad; [9]) was 0, the “Ducksalad plant response rating” value (duck salad; [10]) was 0 and the “Ducksalad plant response rating” value (duck salad; [11]) was 0.
